This assay deals with T1, mushroom tyrosinase (TYR) (Agaricus bisporus, UniProt C7FF04).
T1 construct: gene PPO3
As to the kind of experiment: dopachrome assay with L-DOPA substrate; partial inhibition only (maximum about […]; IC20 […]). Format: biochemical.

T1 sequence (C7FF04 2-392): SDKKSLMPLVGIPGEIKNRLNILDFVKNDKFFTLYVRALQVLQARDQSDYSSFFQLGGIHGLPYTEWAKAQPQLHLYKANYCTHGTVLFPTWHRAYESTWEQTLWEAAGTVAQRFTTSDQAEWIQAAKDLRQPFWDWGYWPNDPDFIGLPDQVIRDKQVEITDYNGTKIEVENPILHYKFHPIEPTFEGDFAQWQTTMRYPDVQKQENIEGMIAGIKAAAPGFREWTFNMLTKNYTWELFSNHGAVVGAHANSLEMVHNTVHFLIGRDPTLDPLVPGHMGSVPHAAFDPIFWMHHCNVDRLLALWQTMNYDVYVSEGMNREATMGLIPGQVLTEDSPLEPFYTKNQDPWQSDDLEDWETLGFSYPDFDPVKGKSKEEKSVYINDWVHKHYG

As usually defined, the Emax is the maximal effect, on the per cent scale that the assay sets. `Oc1cc(O)c2c(c1)O[C@H](c1ccc(O)c(O)c1)[C@@H](O)C2` [CH, catechin hydrate]: the Emax was roughly 25%.
